Experimental findings from patent publication US7728040B1, “Polyamine conjugates as selective NMDA inhibitors and anti-cancer drugs” (University of Central Florids Research Foundation, Inc., priority 2002, dated 2010) are described below.

SMILES strings stand for the structures. Where a name gives a salt, the structure may show the parent alone. Read-outs that look alike come from different tables or passages of the source. Bounds are passed on as bounds.

Assay [1] relates to CHO-MG cells. Kind of assay: Cytotoxicity in CHO-MG cells (polyamine-transport deficient). It is filed as cell-based, Chinese hamster. Particulars: Cricetulus griseus, read-out: CHO-MG IC50.
The subject of assay [2] is L1210 cells. Kind of assay: Cytotoxicity in L1210 cells. It is filed as cell-based. Particulars: Mus musculus.
The test system of assay [3] is polyamine transporter. Kind of assay: Ki, affinity for the polyamine transporter in L1210 cells. The format is binding, mouse. The method, then: Biological Evaluation. Three cell lines were chosen for bioassay. L1210 (mouse leukemia) cells were selected for comparison with the published IC50 and Ki values determined for a variety of polyamine substrates. In this regard both Ki and IC50 values were measured in this line for comparison purposes. Chinese hamster ovary (CHO) cells were chosen along with a mutant cell line (CHO-MG) in order to comment on polyamine transporter affinity and cell selectivity. The CHO-MG cell line is polyamine-transport deficient and was isolated after chronic selection for growth resistance to methylglyoxalbis (guanylhydrazone). For the purposes of this study, the CHO-MG cell line represents cells with limited polyamine transport activity. In contrast, the parent CHO cell line illustrates cell types with active polyamine transport. Comparison of efficacy in these two lines provided an important screen to detect conjugate delivery via the polyamine transporter, PAT. For example, a conjugate with high utilization of the transporter would be very toxic to CHO cells, but less so to CHO-MG cells. Therefore, IC50 determination in these two CHO lines provided a relative ranking of delivery via the PAT.

For assay [4], the system named is CHO cells. The assay can be described thus: Cytotoxicity in CHO cells (active polyamine transporter). The format is cell-based, Chinese hamster. Particulars: for IC50: Cricetulus griseus, CHO, read-out: CHO IC50; for CHO-MG/CHO IC50 ratio: selectivity for cells with active polyamine transporter.
Assay [5] relates to L1210 cells + DFMO. Kind of assay: Cytotoxicity in L1210 cells pretreated with DFMO. It is filed as cell-based, mouse. The settings on record: for IC50: Mus musculus; for L1210/(L1210 + DFMO) IC50 ratio: fold more toxic in the presence of DFMO.
Setting [6] is: polyamine-transport deficient line.
The mark [7] stands for this setting: L1210 cells, no DFMO, read-out: L1210 IC50.
[8] abbreviates: L1210 cells pretreated with DFMO, read-out: L1210 + DFMO IC50.

As for `Cl.Cl.Cl.NCCCN(CCCN)Cc1c2ccccc2cc2ccccc12` [Compound 8b, N-(3-Amino-propyl)-N-anthracen-9-ylmethyl-propane-1,3-diamine, trihydrochloride], the IC50 in assay [1] (setting [6]) amounted to 3.4 µM; in assay [2] (setting [7]), 1800 nM; in assay [4] (active polyamine transporter), 1.9 µM; in assay [5] (setting [8]) it was 1400 nM. In assay [3], this compound displayed an inhibitory constant (Ki) of 33400 nM. In assay [4], the “CHO-MG/CHO IC50 ratio” value amounted to 1.8. The “L1210/(L1210 + DFMO) IC50 ratio” value in assay [5] was determined as 1.3.
For the compound `Cl.Cl.Cl.NCCCCNCCCNCc1c2ccccc2cc2ccccc12` [Compound 8c, N^1-{3-[(Anthracen-9-ylmethyl)-amino]-propyl}-butane-1,4-diamine, trihydrochloride], the IC50 in assay [1] (setting [6]) was 8.8 µM; in assay [2] (setting [7]) it was 700 nM; in assay [4] (active polyamine transporter) it was 2.5 µM; in assay [5] (setting [8]), 300 nM. In assay [3], this compound registered a Ki of 2500 nM. Further, the “CHO-MG/CHO IC50 ratio” value in assay [4] was determined as 3.5. The “L1210/(L1210 + DFMO) IC50 ratio” value in assay [5] is on record as 2.3.
Turning to `Cl.Cl.Cl.NCCCCN(CCCN)Cc1c2ccccc2cc2ccccc12` [Compound 8d, N-(3-Amino-propyl)-N-anthracen-9-ylmethyl-butane-1,4-diamine, trihydrochloride], the IC50 in assay [1] (setting [6]) is 9.5 µM; in assay [2] (setting [7]), 400 nM; in assay [4] (active polyamine transporter), 0.4 µM; in assay [5] (setting [8]), 200 nM. In assay [3], this compound registered a Ki of 6200 nM. The “CHO-MG/CHO IC50 ratio” value in assay [4] turned out to be 24. In addition, the “L1210/(L1210 + DFMO) IC50 ratio” value in assay [5] was 2.
For the compound `Cl.Cl.Cl.NCCCCCN(CCCN)Cc1c2ccccc2cc2ccccc12` [Compound 8f, N-(3-Amino-propyl)-N-anthracen-9-ylmethyl-pentane-1,5-diamine, trihydrochloride], the half-maximal inhibitory concentration (IC50) in assay [1] (setting [6]) was found to be 10.1 µM; in assay [2] (setting [7]), 1300 nM; in assay [4] (active polyamine transporter) it was 4.1 µM; in assay [5] (setting [8]) it was 700 nM. Affinity in assay [3] was put at a Ki of 5000 nM. The “CHO-MG/CHO IC50 ratio” value in assay [4] was 2.5. Further, the “L1210/(L1210 + DFMO) IC50 ratio” value in assay [5] was found to be 1.9.
On to `Cl.Cl.Cl.NCCCCCN(CCCCN)Cc1c2ccccc2cc2ccccc12` [Compound 8g, N-(4-Amino-butyl)-N-anthracen-9-ylmethyl-pentane-1,5-diamine, trihydrochloride], for which the IC50 in assay [1] (setting [6]) is 57.3 µM; in assay [2] (setting [7]), 400 nM; in assay [4] (active polyamine transporter), 1.5 µM; in assay [5] (setting [8]), 300 nM. This compound also gave an inhibition constant Ki in assay [3] of 1700 nM. Also, the “CHO-MG/CHO IC50 ratio” value in assay [4] stood at 38. The “L1210/(L1210 + DFMO) IC50 ratio” value in assay [5] is reported as 1.3.
In the case of `NCCCCNCCCNCCCNCc1c2ccccc2cc2ccccc12` [Compound 13a, N^1-{3-[3-(Anthracen-9-ylmethyl)-amino]-propylamino}-butane-1,4-diamine Tetrahydrochloride], the IC50 in assay [1] (setting [6]) came to 41.5 µM; in assay [2] (setting [7]), 21800 nM; in assay [4] (active polyamine transporter) it was 44 µM; in assay [5] (setting [8]), 21900 nM. This compound had an inhibition constant (Ki) in assay [3] of 107 nM. In assay [4], the “CHO-MG/CHO IC50 ratio” value is listed as 0.9. Also, in assay [5], the “L1210/(L1210 + DFMO) IC50 ratio” value was 1.
In the case of `Cl.Cl.Cl.Cl.NCCCCCN(CCCCN)CCCNCc1c2ccccc2cc2ccccc12` [Compound 13d, N-(4-Amino-butyl)-N-{3-[(anthracen-9-ylmethyl)-amino]-propyl}-pentane-1,5-diamine Tetrahydrochloride], the IC50 in assay [1] (setting [6]) turned out to be 41.7 µM; in assay [2] (setting [7]), 10700 nM; in assay [4] (active polyamine transporter), 35 µM; in assay [5] (setting [8]), 7200 nM. The Ki in assay [3] stood at 90 nM. In addition, in assay [4], the “CHO-MG/CHO IC50 ratio” value amounted to 1.2. In assay [5], the “L1210/(L1210 + DFMO) IC50 ratio” value is 1.5.
`Cl.Cl.Cl.Cl.NCCCCN(CCCCNCCCN)Cc1c2ccccc2cc2ccccc12` [Compound 13e, N-[4-(3-Amino-propylamino)-butyl]-N-anthracen-9-ylmethyl-butane-1,4-diamine Tetrahydrochloride]: the IC50 came out at 2.8 µM in assay [1] (setting [6]), 4300 nM in assay [2] (setting [7]), 4 µM in assay [4] (active polyamine transporter) and 600 nM in assay [5] (setting [8]). In assay [3], this compound had a Ki of 74 nM. Moreover, the “CHO-MG/CHO IC50 ratio” value in assay [4] is reported as 0.7. In addition, the “L1210/(L1210 + DFMO) IC50 ratio” value in assay [5] is 7.2.
Regarding `Cl.Cl.Cl.Cl.NCCCCNCCCCN(CCCCN)Cc1c2ccccc2cc2ccccc12` [Compound 13f, N-[4-(4-Amino-butylamino)-butyl]-N-anthracen-9-ylmethyl-butane-1,4-diamine Tetrahydrochloride], the IC50 in assay [1] (setting [6]) was 33.2 µM; in assay [2] (setting [7]), 7500 nM; in assay [4] (active polyamine transporter) it was 10.6 µM; in assay [5] (setting [8]), 1600 nM. The compound further displayed a Ki in assay [3] of 51 nM. The “L1210/(L1210 + DFMO) IC50 ratio” value in assay [5] was determined as 4.7.
In the case of `Cl.Cl.Cl.Cl.NCCCCCN(CCCCNCCCN)Cc1c2ccccc2cc2ccccc12` [Compound 13g, N-[4-(3-Amino-propylamino)-butyl]-N-anthracen-9-ylmethyl-pentane-1,5-diamine Tetrahydrochloride], the IC50 in assay [1] (setting [6]) was 33.5 µM; in assay [2] (setting [7]), 6400 nM; in assay [4] (active polyamine transporter), 18 µM; in assay [5] (setting [8]), 2100 nM. In addition, the Ki in assay [3] was found to be 99 nM. Also, the “CHO-MG/CHO IC50 ratio” value in assay [4] is 1.9. The “L1210/(L1210 + DFMO) IC50 ratio” value in assay [5] was determined as 3.
Turning to `Cl.Cl.Cl.Cl.NCCCCCN(CCCCNCCCCN)Cc1c2ccccc2cc2ccccc12` [Compound 13h, N-[4-(4-Amino-butylamino)-butyl]-N-anthracen-9-ylmethyl-pentane-1,5-diamine Tetrahydrochloride], the IC50 in assay [1] (setting [6]) is 30.8 µM; in assay [2] (setting [7]), 7200 nM; in assay [4] (active polyamine transporter) it was 9.9 µM; in assay [5] (setting [8]) it was 3800 nM. This compound had a Ki in assay [3] of 65 nM. The “L1210/(L1210 + DFMO) IC50 ratio” value in assay [5] came to 1.9.
As for `Cl.Cl.Cl.Cl.NCCCCCN(CCCCCNCCCCN)Cc1c2ccccc2cc2ccccc12` [Compound 13i, N-[5-(4-Amino-butylamino)-pentyl]-N-anthracen-9-ylmethyl-pentane-1,5-diamine Tetrahydrochloride], the IC50 in assay [1] (setting [6]) was 5.7 µM; in assay [2] (setting [7]), 7100 nM; in assay [4] (active polyamine transporter) it was 4 µM; in assay [5] (setting [8]) it was 4300 nM. The compound also displayed an inhibitory constant (Ki) in assay [3] of 64 nM. The “CHO-MG/CHO IC50 ratio” value in assay [4] was found to be 1.4. Besides, the “L1210/(L1210 + DFMO) IC50 ratio” value in assay [5] was determined as 1.7.
As to `Cl.Cl.Cl.NCCCCNCCCCNCc1ccccc1` [Compound 27a, N-(4-Amino-butyl)-N′-benzene-1-ylmethyl-butane-1,4-diamine Trihydrochloride], the IC50 in assay [1] (setting [6]) was more than 1000 µM; in assay [2] (setting [7]), 36300 nM; in assay [4] (active polyamine transporter), more than 1000 µM; in assay [5] (setting [8]), 421000 nM. In assay [3], this compound yielded a Ki of 4500 nM. In assay [5], the “L1210/(L1210 + DFMO) IC50 ratio” value was 0.1.
In the case of `Cl.Cl.Cl.NCCCCNCCCCNCc1cccc2ccccc12` [Compound 27b, N-(4-Amino-butyl)-N′-naphthalen-1-ylmethyl-butane-1,4-diamine Trihydrochloride], the IC50 in assay [1] (setting [6]) was more than 100 µM; in assay [2] (setting [7]), 500 nM; in assay [4] (active polyamine transporter), 0.6 µM; in assay [5] (setting [8]) it was 430 nM. The compound further showed a Ki in assay [3] of 3800 nM. The “CHO-MG/CHO IC50 ratio” value in assay [4] (listed as 27c, Trihydrochloride) is given as more than 164; in assay [4] (trihydrochloride) it was more than 164. The “L1210/(L1210 + DFMO) IC50 ratio” value in assay [5] is 1.1.
Take `Cl.Cl.Cl.NCCCCNCCCCNCc1ccc2ccc3cccc4ccc1c2c34` [Compound 27d, N-(4-Amino-butyl)-N′-pyren-1-ylmethyl-butane-1,4-diamine Trihydrochloride]: the IC50 in assay [1] was 15.5 µM; in assay [2] (L1210, read-out: L1210 IC50), 400 nM; in assay [4], 0.46 µM; in assay [5] (L1210, read-out: L1210 + DFMO IC50) it was 360 nM. This compound yielded a Ki in assay [3] of 2900 nM. In addition, the “CHO-MG/CHO IC50 ratio” value in assay [4] is listed as 34. The “L1210/(L1210 + DFMO) IC50 ratio” value in assay [5] is recorded as 1.1.
Take `Cl.Cl.Cl.NCC(O)CNCCCCNCc1c2ccccc2cc2ccccc12` (stereo not drawn) [Compound 30, 1-Amino-3-{4-[(anthracen-9-ylmethyl)-amino]-butylamino}-propan-2-ol Trihydrochloride]: the IC50 in assay [1] (setting [6]) was 9.5 µM; in assay [2] (setting [7]), 1500 nM; in assay [4] (active polyamine transporter), 9.1 µM; in assay [5] (setting [8]), 2300 nM. Moreover, the Ki in assay [3] was found to be 12500 nM. For the same compound, the “CHO-MG/CHO IC50 ratio” value in assay [4] is 1. In addition, the “L1210/(L1210 + DFMO) IC50 ratio” value in assay [5] was found to be 0.7.
Take `Cl.Cl.Cl.NC1CCC(NCCCCNCc2c3ccccc3cc3ccccc23)CC1` (stereo not drawn) [Compound 31, N-{4-[(Anthracen-9-ylmethyl)-amino]-butyl}-cyclohexane-1,4-diamine Trihydrochloride]: the IC50 came out at 17.4 µM in assay [1] (setting [6]), 1000 nM in assay [2] (setting [7]), 2.5 µM in assay [4] (active polyamine transporter) and 700 nM in assay [5] (setting [8]). In addition, the Ki in assay [3] is 3800 nM. Also, the “CHO-MG/CHO IC50 ratio” value in assay [4] is on record as 7. Also, in assay [5], the “L1210/(L1210 + DFMO) IC50 ratio” value came out at 1.4.

A word on the IC50: it is the concentration that gives 50% inhibition. One may read the Ki as the equilibrium dissociation constant of an inhibitor or competing ligand from its target.
